Test results published in patent US20230135093A1, “TRIAZOLYL DERIVATIVES AS GABA A ALPHA5 PAM” (Hoffmann-La Roche Inc., priority 2020, published 2023).

Tests used:
h-GABA-A α5β3γ2 [1] = target: T1, h-GABA-A α5β3γ2 (Homo sapiens, UniProt P18507+P31644); test: [3H]flumazenil competition binding assay on membranes of HEK293 cells expressing GABAA receptors; conditions: Table 1; displacement of [3H]-Flumazenil (0.5 nM), HEK293 cells expressing human receptors, means of two determinations
T1 construct: expressed in transfected cells; host or cells: Xenopus laevis oocytes, micro-injected with subunit RNA
Experimental: The affinity of compounds at GABAA receptor subtypes was measured by competition for [3H]flumazenil (85 Ci/mmol; Roche) binding to HEK293 cells expressing rat (stably transfected) or human (transiently transfected) receptors of composition α1β3γ2, α2β3γ2, α3β3γ2 and α5β3γ2.
Cell pellets were suspended in Krebs-tris buffer (4.8 mM KCl, 1.2 mM CaCl2, 1.2 mM MgCl2, 120 mM NaCl, 15 mM Tris; pH 7.5; binding assay buffer), homogenized by polytron for ca. 20 sec on ice and centrifuged for 60 min at 4° C. (50000 g; Sorvall, rotor: SM24=20000 rpm). The cell pellets were resuspended in Krebs-tris buffer and homogenized by polytron for ca. 15 sec on ice. Protein was measured (Bradford method, Bio-Rad) and aliquots of 1 mL were prepared and stored at −80° C.
Radioligand binding assays were carried out in a volume of […] (96-well plates) which contained […] of cell membranes, [^3H]-Flumazenil at a concentration of 1 nM for α1, α2, α3 subunits and 0.5 nM for α5 subunits and the test compound in the range of […]. Nonspecific binding was defined by 10^−5 M diazepam and typically represented less than 5% of the total binding. Assays were incubated to equilibrium for 1 hour at 4° C. and harvested onto GF/C uni-filters (Packard) by filtration using a Packard harvester and washing with ice-cold wash buffer (50 mM Tris; pH 7.5). After drying, filter-retained radioactivity was detected by liquid scintillation counting. Ki values were calculated using Excel-Fit (Microsoft) and are the means of two determinations.
In a preferred embodiment the compounds of the invention are binding selective for the α5 subunit relative to the α1, α2 and α3 subunit. Representative test results, obtained by the above described assay measuring binding affinity to HEK293 cells expressing human (h) receptors, are shown in the Table below.

h-GABA-A α5β3γ2 [2] = target: T1, h-GABA-A α5β3γ2; test: Two-electrode voltage clamp electrophysiology in Xenopus oocytes expressing GABAA receptors (modulation of GABA EC20 current); type: cell-based; conditions: Table 1; for Efficacy (GABA) %: % modulation of GABA EC20 = 100*(Fold increase-1); for Fold increase h-GABA-A α5β3γ2 oocyte: Xenopus oocytes, GABA EC20, test compound at approximatively 30 fold its Ki
Experimental: Xenopus laevis oocytes at maturation stages V-VI were used for the expression of cloned mRNA encoding GABAA receptor subunits. Oocytes ready for RNA micro-injection were bought from Ecocyte, Castrop-Rauxel, Germany and stored in modified Barth's medium (composition in mM: NaCl 88, KCl 1, NaHCO3 2.4, HEPES 10, MgSO4 0.82, CaNO3 0.33, CaCl2 0.33, pH=7.5) at 20° C. until the experiment.
Oocytes were plated in 96-well plates to be used in an automated instrument (Robo-ocyte, MultiChannelSystems, Reutlingen, Germany) for microinjection and electrophysiological recordings. Approximately 50 nl of an aqueous solution containing the RNA transcripts for the subunits of the desired GABAA receptor was injected into each oocyte. RNA concentrations ranged between 0.3 and 16 ng/μl/subunit and were adjusted in pilot experiments to obtain GABA responses of a suitable size and a maximal effect of the reference modulator, Beta-CCM (3-CCM), a betacarboline negative allosteric modulator (NAM) at the GABAA receptor benzodiazepine (BZD) binding site or Midazolam, a benzodiazepine positive allosteric modulator (PAM) at the GABAA receptor benzodiazepine (BZD) binding site. The concentration of the γ2 subunit encoding RNA usually was 5- to 10-fold higher than the RNAs encoding the other subunits. Oocytes were kept in modified Barth's medium (composition in mM: NaCl 88, KCl 1, NaHCO3 4, HEPES 10, MgSO4 0.82, CaNO3 0.33, CaCl2 0.33, pH=7.5) at 20° C. until the experiment.
Electrophysiological experiments were performed on days 3 to 5 after the micro-injection of mRNA. During the experiment the oocytes were constantly superfused by a solution containing (in mM) NaCl 90, KCl 1, HEPES 5, MgCl2 1, CaCl2 1 (pH 7.4). Oocytes were impaled by two glass microelectrodes (resistance: 0.4 MQ) which were filled with a solution containing KCl 1M+K-acetate 1.5 M and voltage-clamped to −80 mV. The recordings were performed at room temperature using the Roboocyte two-electrode voltage clamp system (Multichannelsystem). After an initial equilibration period of 1.5 min GABA was added for 1.5 min at a concentration evoking approximately 20% of a maximal current response (EC20). After another rest interval of 2.5 min GABA was again added evoking a response of similar amplitude and shape. 0.5 min after the onset of this second GABA application the test compound, at a concentration corresponding to approximatively 30 fold its Ki, was added while GABA was still present. Current traces were recorded at a digitization rate of 10 Hz during and shortly before and after the GABA application.
Each compound and concentration was tested on at least 3 oocytes. Different oocytes were used for different compound concentrations. β-CCM, a negative allosteric modulator, or Midazolam, a positive allosteric modulators, were tested on a few (3-6) oocytes on each 96-well plate for a positive control at a maximally effective. β-CCM inhibited the GABA-evoked current by approximatively 50% (Fold increase 0.5), while Midazolam potentiated the GABA-induced current by approximatively 150% (Fold increase 2.5).
For the analysis, the digitized current traces of the first and second GABA response were superimposed and, if necessary, rescaled to equal maximal amplitudes. The ratio between the two responses during the time interval of test compound application was calculated point by point. The extremum of the resulting “ratio trace” was taken as the efficacy (“Fold increase”) of the compound expressed as “% modulation of GABA EC20” (100*(Fold increase-1)).

## CC(C)OC1CN(c2cnn(Cc3c(-c4ncc(C(F)(F)F)cn4)nnn3C)c(=O)c2)C1 [Example 116, 5-(3-isopropoxyazetidin-1-yl)-2-[[3-methyl-5-[5-(trifluoromethyl)pyrimidin-2-yl]triazol-4-yl]methyl]pyridazin-3-one]
h-GABA-A α5β3γ2 [1]
  Ki: 66.1 nM
h-GABA-A α5β3γ2 [2]
  Efficacy (GABA) %: 48%
  Fold increase h-GABA-A α5β3γ2 oocyte: 1.48

## COc1ccc(-c2cnn(Cc3c(-c4ccc(Cl)cc4F)nnn3C)c(=O)c2)cn1 [Example 62, 2-((5-(4-chloro-2-fluoro-phenyl)-3-methyl-triazol-4-yl)methyl)-5-(6-methoxy-3-pyridyl)pyridazin-3-one]
h-GABA-A α5β3γ2 [1]
  Ki: 8.2 nM
h-GABA-A α5β3γ2 [2]
  Efficacy (GABA) %: 50%
  Fold increase h-GABA-A α5β3γ2 oocyte: 1.5

## Cc1nccc(OC2CN(c3cnn(Cc4c(-c5ccc(Cl)cc5F)nnn4C)c(=O)c3)C2)n1 [Example 99, 2-[[5-(4-chloro-2-fluoro-phenyl)-3-methyl-triazol-4-yl]methyl]-5-[3-(2-methylpyrimidin-4-yl)oxyazetidin-1-yl]pyridazin-3-one]
h-GABA-A α5β3γ2 [1]
  Ki: 4.6 nM
h-GABA-A α5β3γ2 [2]
  Efficacy (GABA) %: 86%
  Fold increase h-GABA-A α5β3γ2 oocyte: 1.86

## CC(C)O[C@@H]1CCN(c2cnn(Cc3c(-c4ccc(Cl)cc4F)nnn3C)c(=O)c2)C1 [Example 42, 2-((5-(4-chloro-2-fluoro-phenyl)-3-methyl-triazol-4-yl)methyl)-5-((3R)-3-isopropoxy-pyrrolidin-1-yl)pyridazin-3-one]
h-GABA-A α5β3γ2 [1]
  Ki: 18.3 nM
h-GABA-A α5β3γ2 [2]
  Efficacy (GABA) %: 71%
  Fold increase h-GABA-A α5β3γ2 oocyte: 1.71

## Cn1nnc(-c2ccc(Cl)cc2F)c1Cn1ncc(N2CC(OCC(F)F)C2)cc1=O [Example 54, 2-[[5-(4-chloro-2-fluoro-phenyl)-3-methyl-triazol-4-yl]methyl]-5-[3-(2,2-difluoro-ethoxy)azetidin-1-yl]pyridazin-3-one]
h-GABA-A α5β3γ2 [1]
  Ki: 6.4 nM
h-GABA-A α5β3γ2 [2]
  Efficacy (GABA) %: 82%
  Fold increase h-GABA-A α5β3γ2 oocyte: 1.82

## Cc1ccc(-c2nnn(C)c2Cn2ncc(N3C[C@H](C)O[C@@H](C)C3)cc2=O)cn1 (racemic) [Example 12, 2-[[3-methyl-5-(6-methyl-3-pyridyl)triazol-4-yl]methyl]-5-[rac-(2S,6S)-2,6-dimethylmorpholin-4-yl]pyridazin-3-one]
h-GABA-A α5β3γ2 [1]
  Ki: 2.6 nM
h-GABA-A α5β3γ2 [2]
  Efficacy (GABA) %: 191%
  Fold increase h-GABA-A α5β3γ2 oocyte: 2.91

## CO[C@H]1COC2(C1)CN(c1cnn(Cc3c(-c4ccc(Cl)cc4F)nnn3C)c(=O)c1)C2 [Example 33, (R)-2-((4-(4-chloro-2-fluorophenyl)-1-methyl-1H-1,2,3-triazol-5-yl)methyl)-5-(7-methoxy-5-oxa-2-azaspiro[3.4]octan-2-yl)pyridazin-3(2H)-one]
h-GABA-A α5β3γ2 [1]
  Ki: 16.7 nM
h-GABA-A α5β3γ2 [2]
  Efficacy (GABA) %: 61%
  Fold increase h-GABA-A α5β3γ2 oocyte: 1.61

## Cn1nnc(-c2ccc(Cl)cc2)c1Cn1ncc(N2CC(OCC(F)F)C2)cc1=O [Example 60, 2-[[5-(4-chlorophenyl)-3-methyl-triazol-4-yl]methyl]-5-[3-(2,2-difluoro-ethoxy)azetidin-1-yl]pyridazin-3-one]
h-GABA-A α5β3γ2 [1]
  Ki: 45 nM
h-GABA-A α5β3γ2 [2]
  Efficacy (GABA) %: 76%
  Fold increase h-GABA-A α5β3γ2 oocyte: 1.76

## CC(C)N1CCN(c2cnn(Cc3c(-c4ccc(C(F)(F)F)cc4F)nnn3C)c(=O)c2)C[C@@H]1C [Example 94, 2-[[5-[2-fluoro-4-(trifluoromethyl)phenyl]-3-methyl-triazol-4-yl]methyl]-5-[(3S)-4-isopropyl-3-methyl-piperazin-1-yl]pyridazin-3-one]
h-GABA-A α5β3γ2 [1]
  Ki: 10.4 nM
h-GABA-A α5β3γ2 [2]
  Efficacy (GABA) %: 127%
  Fold increase h-GABA-A α5β3γ2 oocyte: 2.27

## Cc1nnn(-c2ccc(Cl)cc2)c1Cn1ncc(N2C[C@@H](C)O[C@@H](C)C2)cc1=O [Example 20, 2-[[3-(4-chlorophenyl)-5-methyl-triazol-4-yl]methyl]-5-[(2R,6S)-2,6-dimethylmorpholin-4-yl]pyridazin-3-one]
h-GABA-A α5β3γ2 [1]
  Ki: 8.4 nM
h-GABA-A α5β3γ2 [2]
  Efficacy (GABA) %: 108%
  Fold increase h-GABA-A α5β3γ2 oocyte: 2.08

## CCn1nnc(-c2ccc(Cl)cc2F)c1Cn1ncc(N2CC(OC(C)C)C2)cc1=O [Example 90, 2-[[5-(4-chloro-2-fluoro-phenyl)-3-ethyl-triazol-4-yl]methyl]-5-(3-isopropoxyazetidin-1-yl)pyridazin-3-one]
h-GABA-A α5β3γ2 [1]
  Ki: 19.4 nM
h-GABA-A α5β3γ2 [2]
  Efficacy (GABA) %: 96%
  Fold increase h-GABA-A α5β3γ2 oocyte: 1.96

## Cn1nnc(-c2ccc(C(F)(F)F)cc2F)c1Cn1ncc(N2CC(OCC(F)F)C2)cc1=O [Example 76, 5-[3-(2,2-difluoroethoxy)azetidin-1-yl]-2-[[5-[2-fluoro-4-(trifluoromethyl)phenyl]-3-methyl-triazol-4-yl]methyl]pyridazin-3-one]
h-GABA-A α5β3γ2 [1]
  Ki: 11.6 nM
h-GABA-A α5β3γ2 [2]
  Efficacy (GABA) %: 115%
  Fold increase h-GABA-A α5β3γ2 oocyte: 2.15

## Cn1nnc(-c2ncc(C(F)(F)F)cn2)c1Cn1ncc(N2CC(OC(F)F)C2)cc1=O [Example 121, 5-[3-(difluoromethoxy)azetidin-1-yl]-2-[[3-methyl-5-[5-(trifluoromethyl)pyrimidin-2-yl]triazol-4-yl]methyl]pyridazin-3-one]
h-GABA-A α5β3γ2 [1]
  Ki: 24.8 nM
h-GABA-A α5β3γ2 [2]
  Efficacy (GABA) %: 89%
  Fold increase h-GABA-A α5β3γ2 oocyte: 1.89

## CC(C)N1CCN(c2cnn(Cc3c(-c4ccc(Cl)cc4)nnn3C)c(=O)c2)C[C@@H]1C [Example 40, 2-[[5-(4-chlorophenyl)-3-methyl-triazol-4-yl]methyl]-5-[(3S)-4-isopropyl-3-methyl-piperazin-1-yl]pyridazin-3-one]
h-GABA-A α5β3γ2 [1]
  Ki: 20.2 nM
h-GABA-A α5β3γ2 [2]
  Efficacy (GABA) %: 103%
  Fold increase h-GABA-A α5β3γ2 oocyte: 2.03

## COc1ccc(-c2cnn(Cc3c(C)nnn3-c3ccc(Cl)cc3F)c(=O)c2)cc1 [Example 56, 2-((3-(4-chloro-2-fluoro-phenyl)-5-methyl-triazol-4-yl)methyl)-5-(4-methoxyphenyl)pyridazin-3-one]
h-GABA-A α5β3γ2 [1]
  Ki: 21.6 nM
h-GABA-A α5β3γ2 [2]
  Efficacy (GABA) %: 50%
  Fold increase h-GABA-A α5β3γ2 oocyte: 1.5

## CCOC1CN(c2cnn(Cc3c(-c4ncc(C(F)(F)F)cn4)nnn3C)c(=O)c2)C1 [Example 115, 5-(3-ethoxyazetidin-1-yl)-2-[[3-methyl-5-[5-(trifluoromethyl)pyrimidin-2-yl]triazol-4-yl]methyl]pyridazin-3-one]
h-GABA-A α5β3γ2 [1]
  Ki: 47.4 nM
h-GABA-A α5β3γ2 [2]
  Efficacy (GABA) %: 74%
  Fold increase h-GABA-A α5β3γ2 oocyte: 1.74
